Reference: patent publication US12281149B2, “Modulators of G-protein coupled receptors” (priority 2021, dated 2025)
*1 amine or outer side, *2 acyl side, *3 side chain or, on linkers, in order; H or OH if unused. Where a SMILES comes first, the peptide text is derived from it. Side-chain parts run from the residue outwards. [ ]: non-standard residue; d: D form. The star is where a group is joined. Isobutyryl(2-(3-CN-5-F-Ph)) = CC(C)(C(=O)*)c1cc(F)cc(C#N)c1; C20 diacid = O=C(O)CCCCCCCCCCCCCCCCCCC(=O)*; γGlu = O=C(O)[C@H](CCC(=O)[*:2])N[*:1]; X47 = O=C(CCNCc1cc(O)cc(Cl)c1)*; AEEA = NCCOCCOCC(=O)O; Aib = CC(C)(N)C(=O)O; βAla = NCCC(=O)O

Columns and labels:
Assay type in all cases: cell-based
GLP-1 receptor [1] = biological target: T1, GLP-1 receptor (Homo sapiens, UniProt P43220); test: HitHunter cAMP assay, GLP-1 receptor; conditions: for EC50: CHO cells stably expressing human GLP-1 receptor, cAMP accumulation, 30 min, read-out: EC50 GLP-1R; for Emax: CHO cells, cAMP, normalized to maximum signal from GLP-1 (high) and DMSO (low), read-out: Emax GLP-1R
GIP receptor [2] = biological target: T2, GIP receptor (Homo sapiens, UniProt P48546); test: HitHunter cAMP assay, GIP receptor; conditions: for EC50: CHO cells stably expressing GIP receptor, cAMP accumulation, 30 min, read-out: EC50 GIP-1R; for Emax: CHO cells, cAMP, normalized to maximum signal from GIP (high) and DMSO (low), read-out: Emax GIP-1R
T2 sequence (P48546 22-466): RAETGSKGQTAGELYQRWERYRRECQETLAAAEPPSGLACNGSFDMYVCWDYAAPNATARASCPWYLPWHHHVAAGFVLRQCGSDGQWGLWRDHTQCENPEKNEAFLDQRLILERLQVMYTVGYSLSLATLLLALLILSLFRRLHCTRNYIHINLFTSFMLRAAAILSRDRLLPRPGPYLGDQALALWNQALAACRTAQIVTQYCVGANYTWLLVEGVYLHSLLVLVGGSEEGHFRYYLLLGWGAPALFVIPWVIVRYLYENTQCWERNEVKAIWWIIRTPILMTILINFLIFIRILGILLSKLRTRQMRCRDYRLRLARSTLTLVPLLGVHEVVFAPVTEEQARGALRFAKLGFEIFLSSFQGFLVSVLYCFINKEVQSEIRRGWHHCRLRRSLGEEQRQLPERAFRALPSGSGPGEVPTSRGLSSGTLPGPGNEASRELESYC

GIP receptor [3] = biological target: T2, GIP receptor; test: PathHunter β-arrestin assay, GIP receptor; design: host or cells: PathHunter CHO-K1 GIPR β-Arrestin Cell Line; conditions: β-arrestin-2 recruitment, PathHunter CHO-K1 GIPR β-Arrestin Cell Line, 90 min at 37° C.; normalized to GIP; read-out: GIPR β Arrestin EC50
GLP-1 receptor [4] = biological target: T1, GLP-1 receptor; test: PathHunter β-arrestin assay, GLP-1 receptor; design: host or cells: PathHunter CHO-K1 GLP1R β-Arrestin Cell Line; conditions: β-arrestin-2 recruitment, PathHunter CHO-K1 GLP1R β-Arrestin Cell Line, 90 min at 37° C.; normalized to GLP-1; read-out: GLP-1R β Arrestin EC50

T1 sequence (P43220 24-463): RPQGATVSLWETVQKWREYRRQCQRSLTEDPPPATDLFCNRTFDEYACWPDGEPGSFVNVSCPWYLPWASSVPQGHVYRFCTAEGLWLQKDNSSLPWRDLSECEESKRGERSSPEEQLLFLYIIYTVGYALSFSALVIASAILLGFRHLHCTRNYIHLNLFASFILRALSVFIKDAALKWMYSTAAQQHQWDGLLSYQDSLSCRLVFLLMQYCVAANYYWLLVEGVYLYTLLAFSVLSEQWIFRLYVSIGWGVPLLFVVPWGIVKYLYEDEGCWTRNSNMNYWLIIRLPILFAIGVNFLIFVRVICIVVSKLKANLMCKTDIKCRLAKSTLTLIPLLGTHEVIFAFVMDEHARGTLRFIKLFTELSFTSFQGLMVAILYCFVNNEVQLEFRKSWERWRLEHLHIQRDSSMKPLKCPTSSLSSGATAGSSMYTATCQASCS

Row | SMILES | EC50 (GLP-1 receptor [1]) [nM] | Emax (GLP-1 receptor [1]) [%] | EC50 (GIP receptor [2]) [nM] | Emax (GIP receptor [2]) [%] | EC50 (GIP receptor [3]) [nM] | EC50 (GLP-1 receptor [4]) [nM]
1 | CC[C@H](C)[C@H](NC(=O)[C@H](CC(C)C)NC(=O)[C@H](Cc1c[nH]c2ccccc12)NC(=O)[C@H](CCC(N)=O)NC(=O)[C@@H](NC(=O)[C@H](Cc1ccccc1)NC(=O)[C@H](C)NC(=O)[C@H](CCCCNC(=O)COCCOCCNC(=O)COCCOCCNC(=O)CC[C@H](NC(=O)CCCCCCCCCCCCCCCCCCC(=O)O)C(=O)O)NC(=O)[C@H](CCC(N)=O)NC(=O)[C@H](C)NC(=O)[C@@H](NC(=O)[C@H](CCCCN)NC(=O)[C@H](CC(=O)O)NC(=O)[C@H](CC(C)C)NC(=O)C(C)(C)NC(=O)[C@@H](NC(=O)[C@H](CO)NC(=O)[C@H](Cc1ccc(O)cc1)NC(=O)[C@H](CC(=O)O)NC(=O)[C@H](CO)NC(=O)[C@@H](NC(=O)[C@H](Cc1ccccc1)NC(=O)[C@@H](NC(=O)CNC(=O)[C@@H](CC(=O)O)NC(=O)CCNC(=O)C(C)(C)c1cc(F)cc(C#N)c1)[C@@H](C)O)[C@@H](C)O)[C@@H](C)CC)[C@@H](C)CC)C(C)C)C(=O)N[C@@H](C)C(=O)NCC(=O)NCC(=O)N1CCC[C@H]1C(=O)N[C@@H](CO)C(=O)N[C@@H](CO)C(=O)NCC(=O)N[C@@H](C)C(=O)N1CCC[C@H]1C(=O)N1CCC[C@H]1C(=O)N1CCC[C@H]1C(=O)N[C@@H](CO)C(N)=O [Compound 127] ({Isobutyryl(2-(3-CN-5-F-Ph))-βAla}-[dD]GTFTSDYSI[Aib]LDKIAQK([AEEA-AEEA-γGlu-C20 diacid])AFVQWLIAGGPSSGAPPPS-NH2) | 1 to 10 | 93 | 100 to 1000 | 82 | > 1000 | > 1000
2 | CC[C@H](C)[C@H](NC(=O)[C@H](CC(C)C)NC(=O)[C@H](Cc1c[nH]c2ccccc12)NC(=O)[C@H](CCC(N)=O)NC(=O)[C@@H](NC(=O)[C@H](Cc1ccccc1)NC(=O)[C@H](C)NC(=O)[C@H](CCCCNC(=O)COCCOCCNC(=O)COCCOCCNC(=O)CC[C@H](NC(=O)CCCCCCCCCCCCCCCCCCC(=O)O)C(=O)O)NC(=O)[C@H](CCC(N)=O)NC(=O)[C@H](C)NC(=O)[C@@H](NC(=O)[C@H](CCCCN)NC(=O)[C@H](CC(=O)O)NC(=O)[C@H](CC(C)C)NC(=O)C(C)(C)NC(=O)[C@@H](NC(=O)[C@H](CO)NC(=O)[C@H](Cc1ccc(O)cc1)NC(=O)[C@H](CC(=O)O)NC(=O)[C@H](CO)NC(=O)[C@@H](NC(=O)[C@H](Cc1ccccc1)NC(=O)[C@@H](NC(=O)CNC(=O)[C@H](CCC(=O)O)NC(=O)CCNCc1cc(O)cc(Cl)c1)[C@@H](C)O)[C@@H](C)O)[C@@H](C)CC)[C@@H](C)CC)C(C)C)C(=O)N[C@@H](C)C(=O)NCC(=O)NCC(=O)N1CCC[C@H]1C(=O)N[C@@H](CO)C(=O)N[C@@H](CO)C(=O)NCC(=O)N[C@@H](C)C(=O)N1CCC[C@H]1C(=O)N1CCC[C@H]1C(=O)N1CCC[C@H]1C(=O)N[C@@H](CO)C(N)=O [Compound 275] (X47-EGTFTSDYSI[Aib]LDKIAQK([AEEA-AEEA-γGlu-C20 diacid])AFVQWLIAGGPSSGAPPPS-NH2) | 1 to 10 | 99 | 10 to 100 | 17 | > 1000 | > 1000
